Experimental findings from US5219867A, “Platelet aggregation inhibitory agents” (priority 1992, dated 1993) are described below.

In this assay the test system is human blood platelets. The assay is described as follows: In vitro inhibition of ADP-induced human platelet aggregation (platelet-rich plasma, aggregometer). Type of assay: cell-based. The settings on record: for IC50: Homo sapiens, Platelet; for Potency in inhibiting aggregation relative to rac-I: in vitro platelet aggregation. As to the method:
Procedure for Determining In Vitro Platelet Aggregation-Inhibitory Activity. Adenosine diphosphate (ADP) was used to induce platelet aggregation and was utilized as the sodium salt. A 10 mM stock solution was prepared fresh before each use in modified Tyrode's buffer and working dilutions were prepared with modified Tyrode's buffer immediately prior to use. The buffer contained NaCl (137.00 mM), KCl (2.70 mM), NaHCO3 (11.90 mM), NaH2 PO4 H2 O (0.36 mM) and glucose (5.60 mM) in redistilled water. Adjustment to pH 7.4 was effected by addition of 1N HCl.
The blood was transferred into plastic centrifuge tubes containing 3.2% sodium citrate (blood/citrate ratio 8:1) and centrifuged at 120Xg for 15 minutes at 23° C., yielding platelet-rich plasma (PRP); platelet-poor-plasma (PPP) was obtained by centrifugation of citrated whole blood at 1,100Xg for 15 min at 23° C. The platelet count of PRP was determined and adjusted to a final count of 300,000 platelet per mm^3 by dilution with autologous PPP. […] The plasma so obtained was transferred using a 1.0 ml Centaur pipette into a 50 ml polyethylene centrifuge tube. In order to maintain plasma pH in the appropriate range, the air in the tubes are displaced gently (2 minutes) with a 5% (CO2 -95% air (v/v) mixture and the tube capped. The plasma was maintained at 37° C. in a water bath until used in the aggregation experiments.
Assays of platelet aggregation were performed at least in duplicate, using plasma acquired from different donors, employing a method developed by Quintana, et al. (Quintana, et al., Relationships Between the Chemical Constitution of Carbamoylpiperidines and Related Compounds, and Their Inhibition of ADP-Induced Human Blood Platelet Aggregation, Thromb. Res. Vol. 22, Pages 665-680, 1981); Quintana, et al., Effects of Ethanol and of Other Factors on ADP-Induced Aggregation of Human Blood Platelets in Vitro, Thromb. Res., Vol. 20, Pages 405-415, 1980) (cf. Born, Nature, Vol. 194, Pages 927-929, 1962) and Mustard, et al., J. Lab. Clin. Med., Vol. 64, Pages 548-559, 1964).
Initially, in each experiment, 0.45-ml aliquots of PRP were placed in siliconized cuvettes and stirred (1,100 rpm) in the aggregometer at 37° C. to ascertain the absence of spontaneous aggregation. Appropriate ADP solutions (50 μl) were subsequently injected using a Hamilton microliter syringe to determine the minimal concentration eliciting maximal biphasic aggregation. […] In each case, the concentration of ADP so determined was used in eliciting aggregation throughout each specific set of aggregometric evaluations.
0.5 μl of a solution of the evaluant compound in redistilled 95% ethanol was injected into a stirred ([…]) 0.4-ml aliquot of plasma in a siliconized cuvette in the aggregometer-well (37° C). After 15 seconds, the cuvette was transferred to an incubator (also at 37° C.) and the contents held at this temperature, without stirring, until 2 minutes postinjection. The cuvette was then returned to the aggregometer-well, a base-line being recorded for 2 minutes to detect any spontaneous aggregation. At exactly 4 minutes after injection of the evaluant solution, 50 μl of the appropriate ADP solution was injected and aggregation recorded for 5.5 minutes. Evaluants were studied at least 4 different concentrations. Control experiments (ethanol in a final concentration of 0.095% v/v) were performed in conditions parallel with those involving the respective evaluants, and were initiated either 1 minute prior to or 1 minute after the start of experiments employing the test compounds. This permitted injections to be made precisely at the specified times.

“Also recorded” adds a separate entry of the source. Where a name gives a salt, the structure may show the parent alone. Read-outs that look alike come from different tables or passages of the source.

Take `CCN(CC)C(=O)C1CCCN(Cc2ccc(CN3CCCC(C(=O)N(CC)CC)C3)cc2)C1` (racemic) [Compound I, α-α'-Bis[3-(N,N-diethyl-carbamoyl)piperidino]-p-xylene dihydrobromide]: the IC50 is, setting by setting: (read-out: IC50 (compound concentration which inhibits ADP-induced platelet aggregation by 50%) ± S.E., racemic compounds, ADP-induced) 44.5 ± 12.7 µM; (read-out: Ia50 (compound concentrations affecting 50% inhibition of aggregation) ± S.E., Table II, ADP-induced, n = 5 for (0)I and 6 for all others) 44.5 ± 127 µM; (read-out: Ia50 ± S.E. ADP-Induced, table 3, ADP-induced (n = 5-6)) 44.5 µM.

On to `CCN(CC)C(=O)C1CCCN(Cc2ccc(CN3CCCC(C(=O)N(CC)CC)C3)cc2)C1` (single isomer, unassigned) [IC, α-α'-Bis(3-N,N-diethylcarbamoyl)piperidino]-p-xylene dihydrobromide], for which, where the note is “ADP as agonist, in vitro”, the “Potency in inhibiting aggregation relative to (-)-I (antipode)” value came to 15 times. Besides, the IC50 by setting is: (Table II, ADP-induced, n = 5 for (0)I and 6 for all others, read-out: Ia50 (compound concentrations affecting 50% inhibition of aggregation) ± S.E.) 15.3 ± 3.9 µM; (table 3, ADP-induced (n = 5-6), read-out: Ia50 ± S.E. ADP-Induced) 15.3 ± 3.9 µM. Besides, the “Activity as a platelet aggregation inhibitor, in words” value (as compared to racemic (I) / other stereoisomers, listed as (+) enantiomer, dihydrobromide) is listed as “unexepectedly superior activity; also recorded: possesses most of the therapeutic activity”. Besides, the “Potency in inhibiting aggregation relative to rac-I” value is recorded as “three times more potent” (dihydrobromide) and “two to three times more potent” (listed as (+) enantiomer of Compound I, dihydrobromide).
